The values below come from US10927123B2, “Modulators of the beta-3 adrenergic receptor useful for the treatment or prevention of disorders related thereto” (Arena Pharmaceuticals, Inc., priority 2016, dated 2021).

The assay addresses Beta-3 Adrenergic Receptor (Homo sapiens (Human), UniProt P13945). Put plainly: HTRF cAMP antagonist assay (IC50 determination). To be noted: CHO-K1 cells stably expressing recombinant receptor; antagonism of isoproterenol at EC90; cAMP readout. Type of assay: cell-based. A digest of the protocol:
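Antagonist mode: isoproterenol at its predetermined EC90 added after compound to recombinant CHO-K1 cells in IBMX-containing PBS, 1 h, room temperature. Compounds tested as 5-fold, 10-point dilutions, top final typically 10 or 100 μM. HTRF signal converted to cAMP via standard curve, giving IC50.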

Each structure is given as a SMILES string.

Beta-3 Adrenergic Receptor, sequence (P13945 whole entry, species assumed): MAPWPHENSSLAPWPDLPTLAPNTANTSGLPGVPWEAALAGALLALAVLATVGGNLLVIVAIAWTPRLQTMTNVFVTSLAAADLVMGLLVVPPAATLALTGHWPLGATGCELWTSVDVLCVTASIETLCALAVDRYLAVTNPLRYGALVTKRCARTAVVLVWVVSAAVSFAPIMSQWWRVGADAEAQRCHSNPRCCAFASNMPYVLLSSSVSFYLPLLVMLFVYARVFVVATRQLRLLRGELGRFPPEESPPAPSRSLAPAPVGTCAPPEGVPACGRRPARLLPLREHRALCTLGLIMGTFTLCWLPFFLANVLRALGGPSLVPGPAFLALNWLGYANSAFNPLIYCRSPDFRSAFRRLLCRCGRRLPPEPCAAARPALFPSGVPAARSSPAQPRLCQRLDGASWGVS

For the compound `CC(C)S(=O)(=O)c1cccc(OC[C@@H](O)CN[C@H]2COC3(CCN(S(=O)(=O)c4cnc5c(c4)N(C)CCO5)CC3)C2)c1` [Compound 153, (S)-1-(3-(isopropylsulfonyl)phenoxy)-3-((R)-8-(1-methyl-2,3-dihydro-1H-pyrido[2,3-b][1,4]oxazin-7-ylsulfonyl)-1-oxa-8-azaspiro[4.5]decan-3-ylamino)propan-2-ol], the IC50 is 18.8 nM.
Next, `CCOc1ccc(-c2ccc(C3(N)CC3)cc2)cc1S(=O)(=O)N1CCC2(CC1)C[C@@H](NC[C@H](O)COc1cccc(S(=O)(=O)C3(CO)CC3)c1)CO2` [Compound 172, (S)-1-((R)-8-(4′-(1-aminocyclopropyl)-4-ethoxybiphenyl-3-ylsulfonyl)-1-oxa-8-azaspiro[4.5]decan-3-ylamino)-3-(3-(1-(hydroxymethyl)cyclopropylsulfonyl)phenoxy)propan-2-ol]: 50.3 nM.
With `O=S(=O)(CCO)c1cccc(OC[C@@H](O)CN[C@H]2COC3(CCN(S(=O)(=O)c4ccc(-c5ccncc5)cc4)CC3)C2)c1` [Compound 101, (S)-1-(3-(2-hydroxyethylsulfonyl)phenoxy)-3-((R)-8-(4-(pyridin-4-yl)phenylsulfonyl)-1-oxa-8-azaspiro[4.5]decan-3-ylamino)propan-2-ol] the figure was 466 nM.
Regarding `O=S(=O)(c1cccc(OC[C@@H](O)CN[C@H]2COC3(CCN(S(=O)(=O)c4cnc5c(c4)CCCO5)CC3)C2)c1)C1CC1` [Compound 291, (5)-1-(3-(cyclopropylsulfonyl)phenoxy)-3-((R)-8-(3,4-dihydro-2H-pyrano[2,3-b]pyridin-6-ylsulfonyl)-1-oxa-8-azaspiro[4.5]decan-3-ylamino)propan-2-ol], the IC50 turned out to be 69.8 nM.
With `Cc1c(-c2ccc(C3(N)CC3)cc2)cccc1S(=O)(=O)N1CCC2(CC1)C[C@H](NC[C@H](O)COc1cccc(S(=O)(=O)C3(CO)CC3)c1)CO2` [Compound 198, (S)-1-((S)-8-(4′-(1-aminocyclopropyl)-2-methylbiphenyl-3-ylsulfonyl)-1-oxa-8-azaspiro[4.5]decan-3-ylamino)-3-(3-(1-(hydroxymethyl)cyclopropylsulfonyl)phenoxy)propan-2-ol], the half-inhibitory concentration (IC50) was 62.2 nM.
In the case of `CCOc1ccc(-c2ccc(CN)cc2)cc1S(=O)(=O)N1CCC2(CC1)C[C@H](NC[C@H](O)COc1cccc(S(=O)(=O)C(C)(C)CO)c1)CO2` [Compound 187, 2-(3-((S)-3-((S)-8-(4′-(aminomethyl)-4-ethoxybiphenyl-3-ylsulfonyl)-1-oxa-8-azaspiro[4.5]decan-3-ylamino)-2-hydroxypropoxy)phenylsulfonyl)-2-methylpropan-1-ol], the IC50 was 33.4 nM.
With `CNCc1ccc(-c2cccc(S(=O)(=O)N3CCC4(CC3)CC(NC[C@H](O)COc3cccc(S(C)(=O)=O)c3)CO4)c2)cc1` (stereo partly drawn) [Compound 78, (2S)-1-(8-(4′-((methylamino)methyl)biphenyl-3-ylsulfonyl)-1-oxa-8-azaspiro[4.5]decan-3-ylamino)-3-(3-(methylsulfonyl)phenoxy)propan-2-ol] the figure was 41.9 nM.
For `COc1ccc(S(=O)(=O)N2CCC3(CC2)C[C@H](NC[C@H](O)COc2cccc(S(=O)(=O)C(C)(C)CO)c2)CO3)cc1-c1ccc(C2(N)CC2)cc1` [Compound 224, 2-(3-((S)-3-((S)-8-(4′-(1-aminocyclopropyl)-6-methoxybiphenyl-3-ylsulfonyl)-1-oxa-8-azaspiro[4.5]decan-3-ylamino)-2-hydroxypropoxy)phenylsulfonyl)-2-methylpropan-1-ol], the IC50 stood at 73.2 nM.
As for `Cc1c(Br)cccc1S(=O)(=O)N1CCC2(CC1)C[C@@H](NC[C@H](O)COc1cccc(S(=O)(=O)C3(CO)CC3)c1)CO2` [Compound 192, (S)-1-((R)-8-(3-bromo-2-methylphenylsulfonyl)-1-oxa-8-azaspiro[4.5]decan-3-ylamino)-3-(3-(1-(hydroxymethyl)cyclopropylsulfonyl)phenoxy)propan-2-ol], the half-maximal inhibitory concentration (IC50) was 298 nM.
On to `Cc1c(S(=O)(=O)N2CCC3(CC2)C[C@@H](NC[C@H](O)COc2cccc(S(=O)(=O)C4(CO)CC4)c2)CO3)cnc2c1N(C)CCO2` [Compound 260, (S)-1-((R)-8-(1,8-dimethyl-2,3-dihydro-1H-pyrido[2,3-b][1,4]oxazin-7-ylsulfonyl)-1-oxa-8-azaspiro[4.5]decan-3-ylamino)-3-(3-(1-(hydroxymethyl)cyclopropylsulfonyl)phenoxy)propan-2-ol], for which the IC50 came to 178 nM.
Regarding `O=S(=O)(c1cccc(OC[C@@H](O)CNC2COC3(CCN(S(=O)(=O)c4ccc5ccccc5c4)CC3)C2)c1)C1CCCC1` (stereo partly drawn) [Compound 19, (2S)-1-(3-(cyclopentylsulfonyl)phenoxy)-3-(8-(naphthalen-2-ylsulfonyl)-1-oxa-8-azaspiro[4.5]decan-3-ylamino)propan-2-ol], the concentration for half-maximal inhibition (IC50) came to 66.7 nM.
Regarding `CN1CC(C)(C)Oc2nc(S(=O)(=O)N3CCC4(CC3)C[C@@H](NC[C@H](O)COc3cccc(S(=O)(=O)C5(CO)CC5)c3)CO4)ccc21` [Compound 288, (S)-1-(3-(1-(hydroxymethyl)cyclopropylsulfonyl)phenoxy)-3-((R)-8-(1,3,3-trimethyl-2,3-dihydro-1H-pyrido[2,3-b][1,4]oxazin-6-ylsulfonyl)-1-oxa-8-azaspiro[4.5]decan-3-ylamino)propan-2-ol], the IC50 worked out at 177 nM.
Take `CS(=O)(=O)Cc1cccc(OC[C@@H](O)CNC2COC3(CCN(S(=O)(=O)c4ccc5ccccc5c4)CC3)C2)c1` (stereo partly drawn) [Compound 335, (2S)-1-(3-(methylsulfonylmethyl)phenoxy)-3-(8-(naphthalen-2-ylsulfonyl)-1-oxa-8-azaspiro[4.5]decan-3-ylamino)propan-2-ol]: the 50% inhibitory concentration (IC50) turned out to be 14.4 nM.
With `O=S(=O)(c1ccc2ncccc2c1)N1CCC2(CC1)C[C@@H](NC[C@H](O)COc1cccc(S(=O)(=O)C3(CO)CCC3)c1)CO2` [Compound 110, (S)-1-(3-(1-(hydroxymethyl)cyclobutylsulfonyl)phenoxy)-3-((R)-8-(quinolin-6-ylsulfonyl)-1-oxa-8-azaspiro[4.5]decan-3-ylamino)propan-2-ol] the figure was 68.7 nM.
For the compound `O=S(=O)(c1ccc2ncccc2c1)N1CCC2(CC1)C[C@@H](NC[C@H](O)COc1cccc(S(=O)(=O)C(F)(F)CO)c1)CO2` [Compound 148, (S)-1-(3-(1,1-difluoro-2-hydroxyethylsulfonyl)phenoxy)-3-((R)-8-(quinolin-6-ylsulfonyl)-1-oxa-8-azaspiro[4.5]decan-3-ylamino)propan-2-ol], the IC50 came to 21.8 nM.
With `CS(=O)(=O)c1cccc(OC[C@@H](O)CNC2COC3(CCN(S(=O)(=O)c4cccc(-c5ccc(CN)cc5)c4)CC3)C2)c1` (stereo partly drawn) [Compound 41, (2S)-1-(8-(4′-(aminomethyl)biphenyl-3-ylsulfonyl)-1-oxa-8-azaspiro[4.5]decan-3-ylamino)-3-(3-(methylsulfonyl)phenoxy)propan-2-ol] the figure was 13.7 nM; with `Cc1cc(=O)[nH]c2ccc(S(=O)(=O)N3CCC4(CC3)C[C@@H](NC[C@H](O)COc3cccc(S(=O)(=O)C5(CO)CC5)c3)CO4)cc12` [Compound 236, 6-((R)-3-((S)-2-hydroxy-3-(3-(1-(hydroxymethyl)cyclopropylsulfonyl)phenoxy)propylamino)-1-oxa-8-azaspiro[4.5]decan-8-ylsulfonyl)-4-methylquinolin-2(1H)-one], 369 nM.
